Key:
p-ERK = assay: Western blotting of phosphorylated ERK in HHFDPC; format: cell-based, human; conditions: peptide 500 nM, 5 μM, and 50 μM, 24 hours, vs control group not treated, FIG. 2
Protocol: (§1) First, phosphorylated forms of AKT and ERK, which act as signaling molecules related to the proliferation of HHFDPC, were confirmed through Western blotting. Specifically, HHFDPC as in [Experiment Example 1-1] above was seeded at 4×10^5 cells/well in a 6-well culture plate, cultured in MSC complete medium (mesenchymal stem cell complete media) for 24 hours, and then the medium was replaced with serum free MSC complete medium and cultured for another 24 hours. Then, the HHFDPC was treated with the peptide of SEQ ID NO: 1 prepared in the Preparation Example at concentrations of 500 nM, 5 μM, and 50 μM, respectively, and cultured at 37° C. for 24 hours. As a positive control, minoxidil was treated at a concentration of 1 μM, and as a negative control, HHFDPC without any treatment was used. Then, Western blotting was performed to detect phosphorylated AKT and phosphorylated ERK. After washing with PBS, the cells were treated with 100 ? of lysis buffer to destroy cells, thereby obtaining cell lysate. After electrophoresis using a 10% SDS-PAGE gel, it was transferred to a PVDF membrane and blocked using 5% skim milk at room temperature for 30 minutes. […] After washing again with 0.1% PBS-T (0.1% Tween-20 in PBS) three times for 15 minutes each, p-AKT and p-ERK were detected by treatment with ECL solution (GE Healthcare, USA).

Keratin 19 = assay: RT-PCR of Keratin 19 expression in HHORSC; format: cell-based, human; conditions: peptide 500 nM, 5 μM, and 50 μM, 72 hours, vs control group without treatment, FIG. 6
Protocol: (§2) Specifically, HHORSC (human hair outer root sheath cell, Sciencell, USA) was seeded in a 6-well culture plate at 4×10^5 cells/well and then cultured in MSC complete medium (mesenchymal stem cell complete media) for 24 hours. Next, the medium was replaced with serum free MSC complete medium and cultured again for 24 hours. Then, the HHORSC was treated with the peptide of Preparation Example consisting of amino acid sequence of SEQ ID NO: 1 at concentrations of 500 nM, 5 μM, and 50 μM, respectively, and cultured at 37° C. for 72 hours. As a positive control, EGF was treated at a concentration of 50 nM, and as a negative control, HHORSC without any treatment was used. After washing with PBS, RNA was isolated by treating with 300 ? of easy blue (intron, Korea). Then, CDNA was synthesized using a cDNA synthesis kit (enzynomics, Korea) by quantification using nano drop, and PCR was performed using primers for Keratin 14 and Keratin 19 (base sequences of each primer are listed in Table 3 below) and PCR premix (enzynomics, Korea). Electrophoresis was performed on a 1.5% agarose gel, and the mRNAs of Keratin 14 and Keratin 19 were detected using a band analysis system (Bio-Rad gel image system).

c-Myc = assay: RT-PCR of c-Myc expression in HHFDPC; format: cell-based, human; conditions: peptide 500 nM, 5 μM, and 50 µM, 24 hours, vs control group without any treatment, FIG. 4
Protocol: (§3) Furthermore, in order to determine whether the β-catenin moves to the nucleus and is activated to affect proliferation and differentiation, whether the expression of LEF-1, c-Myc and cyclin D1 (cyclin D1), which act as downstream factors, increases with β-catenin activation was confirmed through RT-PCR. Specifically, in the same manner as the previous Western blotting experiment, HHFDPC cells were cultured, treated with the peptides prepared in the Preparation Example of the present invention at concentrations of 500 nM, 5 μM, and 50 µM, respectively, and cultured at 37° C. for 24 hours. After washing the cells with PBS, RNA was isolated by treating them with 300 […] of easy blue (intron, Korea). Then, CDNA was synthesized using a cDNA synthesis kit (enzynomics, Korea) by quantifying it with nano drop, and PCR was performed using primers for LEF-1, c-Myc and cyclin D1 (sequences of the primers are listed in Table 2 below) and PCR premix (enzynomics, Korea). Electrophoresis was performed on a 1.5% agarose gel, and then the mRNA of LEF-1, c-Myc and cyclin D1 was detected using a band analysis system (Bio-Rad gel image system).

β-catenin = assay: Western blotting of β-catenin moved to the nucleus in HHFDPC; format: cell-based, human; conditions: HHFDPC nuclear proteins, peptide 500 nM, 5 µM, and 50 μM, 24 hours, vs control group not treated, FIG. 3
Protocol: In addition, in addition to p-AKT and p-ERK, in order to confirm the activation of β-catenin, which is known to affect cell proliferation and differentiation, whether β-catenin moved into the nucleus was confirmed through Western blotting. Specifically, the HHFDPC as in [Experiment Example 1-1] was seeded in a 6-well culture plate at an amount of 4×10^5 cells/well, cultured in MSC complete medium (mesenchymal stem cell complete media) for 24 hours. Next, the medium was replaced with serum free MSC complete medium and cultured again for 24 hours. Then, the HHFDPC was treated with the peptide of SEQ ID NO: 1 prepared in the Preparation Example at concentrations of 500 nM, […], and 50 μM, respectively, and cultured at 37° C. for 24 hours. As a positive control, minoxidil was treated at a concentration of 1 μM, and as a negative control, HHFDPC without any treatment was used. After washing with PBS, proteins in the nucleus were isolated using a nuclear protein extraction kit (Thermo scientific, USA). After electrophoresis using a 10% SDS-PAGE gel, it was transferred to a PVDF membrane and blocked using 5% skim milk at room temperature for 30 minutes. […] After washing again with 0.1% PBS-T (0.1% Tween-20 in PBS) three times for 15 minutes each, β-catenin was detected by treatment with ECL solution (GE Healthcare, USA).

Keratin 14 = assay: RT-PCR of Keratin 14 expression in HHORSC; format: cell-based, human; conditions: peptide 500 nM, 5 μM, and 50 μM, 72 hours, vs control group without treatment, FIG. 6
Protocol: as §2

MSX2 = assay: RT-PCR of MSX2 expression in HHGMC; format: cell-based, human; conditions: peptide 500 nM, 5 μM, and 50 μM, 72 hours, vs untreated control group, FIG. 7
Protocol: Specifically, HHGMC (human hair germinal matrix cell, Sciencell, USA) was seeded in a 6-well culture plate at 4×10^5 cells/well and then cultured in MSC complete medium (mesenchymal stem cell complete media) for 24 hours. Next, the medium was replaced with serum free MSC complete medium and cultured again for 24 hours. Then, the HHGMC was treated with the peptide of SEQ ID NO: 1 prepared in the Preparation Example at concentrations of 500 nM, 5 μM, and 50 μM, respectively, and cultured at 37° C. for 72 hours. As a positive control, EGF was treated at a concentration of 50 nM, and as a negative control, HHGMC without any treatment was used. After washing with PBS, RNA was isolated by treating with 300 ? of easy blue (intron, Korea). Next, cDNA was synthesized using a cDNA synthesis kit (enzynomics, Korea) by quantification using nano drop, and PCR was performed using primers for MSX2 (base sequences of the primers are listed in Table 4 below) and PCR premix (enzynomics, Korea). Electrophoresis was performed on a 1.5% agarose gel, and MSX2 mRNA was detected using a band analysis system (Bio-Rad gel image system).

p-AKT = assay: Western blotting of phosphorylated AKT in HHFDPC; format: cell-based, human; conditions: peptide 500 nM, 5 μM, and 50 μM, 24 hours, vs control group not treated, FIG. 2
Protocol: as §1

[1] = test system: human hair follicle dermal papilla cells (HHFDPC); assay: Proliferation of dermal papilla cells (MTT, absorbance at 540 nm); format: cell-based; conditions: peptide 500 nM, 5 μM, and 50 μM, 72 hours, compared to the untreated control group, FIG. 1
Protocol: While culturing human hair follicle dermal dermal papilla cells (HHFDPC), the absorbance was measured after treatment with the peptide of the present invention to confirm whether there was an effect of promoting the proliferation of the HHFDPC dermal papilla cells.
Specifically, HHFDPC (Sciencell, USA) was seeded at 4×10^3 cells/well in a 96-well culture plate, cultured in MSC complete medium (mesenchymal stem cell complete media, Sciencell, USA) for 24 hours, and then the medium was replaced with serum free MSC complete medium and cultured for another 24 hours. Then, the HHFDPC was treated with the peptide of SEQ ID NO: 1 prepared in the Preparation Example at concentrations of 500 nM, 5 μM, and 50 μM, respectively, and cultured at 37° C. for 72 hours. As a positive control, minoxidil was treated at a concentration of 1 μM, and as a negative control, HHFDPC without any treatment was used. Then, 10 ? of 5 mg/ml MTT solution was added and cultured in a 37° C. CO2 incubator for 4 hours to stain the cells. After removing the medium, the cells were treated with 100 μl of DMSO and shaken for 10 minutes, and the number of HHFDPC cells was confirmed by measuring absorbance at a wavelength of 540 nm using a spectrophotometer.

cyclin D1 = assay: RT-PCR of cyclin D1 expression in HHFDPC; format: cell-based, human; conditions: peptide 500 nM, 5 μM, and 50 µM, 24 hours, vs control group without any treatment, FIG. 4
Protocol: as §3

DKK-1 protein = assay: Western blotting of DKK-1 protein in DHT-treated HHFDPC; format: cell-based, human; conditions: HHFDPC with DHT 100 nM, peptide 500 nM, 5 μM, and 50 μM, 24 hours, vs negative control (DHT only), FIG. 5
Protocol: DKK-1 protein (dickkopf-related protein 1) is a hair loss-related protein known to be highly expressed in individuals with hair loss, especially male pattern hair loss, and its expression is known to be promoted by hormones such as DHT (Dihydrotestosterone). Accordingly, the expression of DKK-1 protein was induced by treating HHFDPC cells with DHT together with the peptide according to the Preparation Example of the present invention, and then the expression level of DKK-1 was measured through Western blotting to determine whether there was an effect of suppressing the expression of DKK-1 protein.
Specifically, as in [Experiment Example 1-1] above, HHFDPC was seeded in a 6-well culture plate at 4×10^5 cells/well and then cultured in MSC complete medium (mesenchymal stem cell complete media) for 24 hours. Next, the medium was replaced with serum free MSC complete medium and cultured again for 24 hours. […] After washing again with 0.1% PBS-T (0.1% Tween-20 in PBS) three times for 15 minutes each, DKK-1 protein was detected by treatment with ECL solution (GE Healthcare, USA).

LEF-1 = assay: RT-PCR of LEF-1 expression in HHFDPC; format: cell-based, human; conditions: peptide 500 nM, 5 μM, and 50 µM, 24 hours, vs control group without any treatment, FIG. 4
Protocol: as §3

With “KLQEHLDM [peptide of the present invention]” the “phosphorylation of ERK (p-ERK)” value (p-ERK) was “phosphorylation was found to be increased compared to the control group”, the “amount of Keratin 19 mRNA” value (Keratin 19) was “the amount of mRNA increased further compared to the control group” and the “amount of c-Myc mRNA” value (c-Myc) was “the amount of mRNA increased further compared to the control group”. The “β-catenin moved to the nucleus (activation of β-catenin)” value (β-catenin) was “migration due to activation of β-catenin increased”, the “amount of Keratin 14 mRNA” value (Keratin 14) was “the amount of mRNA increased further compared to the control group” and the “amount of MSX2 mRNA” value (MSX2) was “the amount of mRNA increased further compared to the untreated control group”. For the same sequence, the “phosphorylation of AKT (p-AKT)” value (p-AKT) was “phosphorylation was found to be increased compared to the control group”, the “proliferation of HHFDPC (absorbance, MTT)” value [1] was “proliferation of HHFDPC was promoted depending on the concentration of the treated peptide” and the “amount of cyclin D1 mRNA” value (cyclin D1) was “the amount of mRNA increased further compared to the control group”. For the same sequence, the “amount of DKK-1 protein” value (DKK-1 protein) was “the amount of DKK-1 protein was found to be reduced” and the “amount of LEF-1 mRNA” value (LEF-1) was “the amount of mRNA increased further compared to the control group”.

Reference: US20250281378A1, “PEPTIDE HAVING ACTIVITY OF PREVENTING HAIR LOSS OR PROMOTING HAIR GROWTH AND USE THEREOF” (CAREGEN CO., LTD., priority 2021, published 2025)
